The text below walks through data of patent publication US7714134B2, “Compounds and use of tetrahydropyridothiophenes” (4SC AG, priority 2004, dated 2010).

For test [1], the system named is RKO (RKOp27) human colon adenocarcinoma cells. Description: Alamar Blue cell viability assay, anti-proliferative/cytotoxic activity, RKO p27 uninduced. Particulars: RKOp27, 72 h, proliferating cells, absence of the inducer Ponasterone A, 72 hours incubation. In kind it is cell-based. An outline of the steps:
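RKOp27 colon adenocarcinoma subclones, uninduced, seeded at 4000 cells/well and treated 24 h later with semi-log compound dilutions in DMEM with 10% FCS, in quadruplicate. After 72 h at 37 °C, 5% CO2, viability read by Alamar Blue fluorescence (544/590 nm) relative to untreated cells; IC50 taken from concentration-effect curves.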
On the technique in general: Resazurin is reduced to fluorescent resorufin, in cell work by metabolically active cells.

The subject of test [2] is RKO colon adenocarcinoma cells (RKOp27) arrested by expression of ectopic p27Kip1. Put plainly: Alamar Blue cell viability assay, cell cycle specific mode of action, RKO p27 induced (arrested by Ponasterone A-induced p27Kip1). In kind it is cell-based. The note with it: Homo sapiens, RKOp27, 72 h, cells arrested by p27Kip1 induced with 10 μM Ponasterone A, 72 hours incubation. An outline of the steps:
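RKOp27 cells were seeded at 16000 per well in DMEM/10% FCS with 10 μM Ponasterone A to induce p27Kip1 arrest, then given compound dilutions 24 h later for 72 h at 37 °C. Viability was read by Alamar Blue fluorescence (544/590 nm) as % of untreated cells. Arrested cells were compared with proliferating cells grown without inducer.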

With `N#Cc1c(NC(=O)c2ccccc2)sc2c1CCN(C(=O)OCCCc1cccnc1)C2` [Compound 72, 3-Cyano-2-[(1-phenyl-methanoyl)-amino]-4,7-dihydro-5H-thieno[2,3-c]pyridine-6-carboxylic acid 3-pyridin3-yl-propyl ester], the IC50 in test [1] was ≤ 3 µM; in test [2], > 60 µM.
Turning to `N#Cc1c(NC(=O)c2ccccc2)sc2c1CCN(C(=O)OCCc1ccncc1)C2` [Compound 73, 3-Cyano-2-[(1-phenyl-methanoyl)-amino]4,7-dihydro-5H-thieno[2,3-c]pyridine-6-carboxylic acid 2-pyridin4-yl-ethyl ester], the IC50 was ≤ 3 µM in test [1] and > 60 µM in test [2].
With `CC1(C)OCC(COC(=O)N2CCc3c(sc(NC(=O)c4ccccc4)c3C#N)C2)O1` (stereo not shown) [Compound 74, 3-Cyano-2-[(1-phenyl-methanoyl)-amino]-4,7-dihydro-5H-thieno[2,3-c]pyridine-6-carboxylic acid 2,2-dimethyl-[1,3]dioxolan-4-ylmethyl ester], the figures for the IC50 in test [1] and in test [2] were ≤ 3 µM and > 60 µM, respectively.
The like results for `COCCOCCOC(=O)N1CCc2c(sc(NC(=O)c3ccccc3)c2C#N)C1` [Compound 75, 3-Cyano-2-[(1-phenyl-methanoyl)amino]-4,7-dihydro-5H-thieno[2,3-c]pyridine-6-carboxylic acid 2-(2-methoxy-ethoxy)-ethyl ester] were, in that order, ≤ 3 µM and > 60 µM.
With `N#Cc1c(NC(=O)c2ccccc2)sc2c1CCN(C(=O)OCC(O)CO)C2` (stereo not shown) [Compound 76, 3-Cyano-2-[(1-phenyl-methanoyl)-amino]-4,7-dihydro-5H-thieno[2,3-c]pyridine-6-carboxylic acid 2,3-dihydroxy-propyl ester], the figures for the IC50 in test [1] and in test [2] were ≤ 3 µM and > 60 µM, respectively.
As for `N#Cc1c(NC(=O)c2ccccc2)sc2c1CCN(S(=O)(=O)c1ccc(N3CCOCC3)nc1)C2` [Compound 77, N-[3-Cyano-6-(6-morpholin-4-yl-pyridine-3-sulfonyl)-4,5,6,7-tetrahydro-thieno[2,3-c]pyridin-2-yl]-benzamide], the IC50 in test [1] was ≤ 3 µM; in test [2] it was > 60 µM.
As for `COc1ccc(S(=O)(=O)N2CCc3c(sc(NC(=O)c4ccccc4)c3C#N)C2)cc1` [Compound 79, N-[3-Cyano-6-(4-methoxy-benzenesulfonyl)-4,5,6,7-tetrahydro-thieno[2,3-c]pyridin-2-yl]-benzamide], the IC50 is ≤ 3 µM in test [1] and > 60 µM in test [2].
The like results for `N#Cc1c(NC(=O)c2ccccc2)sc2c1CCN(C(=O)NCCc1ccncc1)C2` [Compound 80, 3-Cyano-2-[(1-phenyl-methanoyl)-amino]-4,7-dihydro-5H-thieno[2,3-c]pyridine-6-carboxylic acid (2-pyridin-4-yl-ethyl)-amide] were, in that order, ≤ 3 µM and > 60 µM.
`N#Cc1c(NC(=O)c2ccccc2)sc2c1CCN(C(=O)NCCc1c[nH]c3ccccc13)C2` [Compound 81, 3-Cyano-2-[(1-phenyl-methanoyl)-amino]-4,7-dihydro-5H-thieno[2,3-c]pyridine-6-carboxylic acid [2-(1H-indol-3-yl)-ethyl]-amide]: the IC50 in test [1] was ≤ 3 µM; in test [2], > 60 µM.
For the compound `N#Cc1c(NC(=O)c2ccccc2)sc2c1CCN(C(=O)NCCc1ccc([N+](=O)[O-])cc1)C2` [Compound 82, 3-Cyano-2-[(1-phenyl-methanoyl)amino]-4,7-dihydro-5H-thieno[2,3-c]pyridine-6-carboxylic acid [2-(4-nitro-phenyl)-ethyl]-amide], the IC50 in test [1] was ≤ 3 µM; in test [2], > 60 µM.
In the same order, the values of `CN(C)C(=O)CCC(=O)N1CCc2c(sc(NC(=O)c3ccccc3)c2C#N)C1` [Compound 83, N-[3-Cyano-6-(3-dimethylcarbamoyl-propanoyl)-4,5,6,7-tetrahydro-thieno[2,3-c]pyridin-2-yl]-benzamide] are ≤ 3 µM and > 100 µM.
Take `CC(=O)OCC(=O)N1CCc2c(sc(NC(=O)c3ccccc3)c2C#N)C1` [Compound 84, Acetic acid 2-3-cyano-2-[(1-phenyl-methanoyl)-amino]-4,7-dihydro-5H-thieno[2,3-c]pyridin-6-yl-2-oxo-ethyl ester]: the IC50 is ≤ 3 µM in test [1] and > 100 µM in test [2].
As for `N#Cc1c(NC(=O)c2ccccc2)sc2c1CCN(C(=O)CCCn1ccnc1)C2` [Compound 85, N-[3-Cyano-6-(4-imidazol-1-yl-butanoyl)-4,5,6,7-tetrahydro-thieno[2,3-c]pyridin-2-yl]-benzamide], the IC50 is ≤ 3 µM in test [1] and > 100 µM in test [2].
The like results for `CC(=O)OCCCC(=O)N1CCc2c(sc(NC(=O)c3ccccc3)c2C#N)C1` [Compound 86, Acetic acid 4-{3-cyano-2-[(1-phenyl-methanoyl)-amino]4,7-dihydro-5H-thieno[2,3-c]pyridin-6-yl}-4-oxo-butyl ester] were, in that order, ≤ 3 µM and > 100 µM.
The like results for `N#Cc1c(NC(=O)c2ccccc2)sc2c1CCN(C(=O)CO)C2` [Compound 87, N-[3-Cyano-6-(2-hydroxy-ethanoyl)-4,5,6,7-tetrahydro-thieno[2,3-c]pyridin-2-yl]-benzamide] were, in that order, ≤ 3 µM and > 100 µM.
Turning to `N#Cc1c(NC(=O)c2ccccc2)sc2c1CCN(C(=O)CCCO)C2` [Compound 88, N-[3-Cyano-6-(4-hydroxy-butanoyl)-4,5,6,7-tetrahydro-thieno[2,3-c]pyridin-2-yl]-benzamide], the IC50 in test [1] is ≤ 3 µM; in test [2], > 100 µM.
In the same order, the values of `COC(=O)COC(=O)N1CCc2c(sc(NC(=O)c3ccccc3)c2C#N)C1` [Compound 93, 3-Cyano-2-[(1-phenyl-methanoyl)-amino]-4,7-dihydro-5H-thieno[2,3-c]pyridine-6-carboxylic acid methoxycarbonylmethyl ester] are ≤ 3 µM and > 100 µM.
For `CC(=O)NCCOC(=O)N1CCc2c(sc(NC(=O)c3ccccc3)c2C#N)C1` [Compound 94, 3-Cyano-2-[(1-phenyl-methanoyl)-amino]4,7-dihydro-5H-thieno[2,3-c]pyridine-6-carboxylic acid 2-acetylamino-ethyl ester], the values for the IC50 in test [1] and in test [2] were ≤ 3 µM and > 100 µM, respectively.
In the same order, the values of `N#Cc1c(NC(=O)c2ccccc2)sc2c1CCN(C(=O)OCCn1ccnc1)C2` [Compound 95] are ≤ 3 µM and > 100 µM.
The like results for `N#Cc1c(NC(=O)c2ccccc2)sc2c1CCN(C(=O)OCCO)C2` [Compound 97, 3-Cyano-2-[(1-phenyl-methanoyl)-amino]-4,7-dihydro-5H-thieno[2,3-c]pyridine-6-carboxylic acid 2-hydroxy-ethyl ester] were, in that order, ≤ 3 µM and > 100 µM.
The like results for `CCNC(=O)N1CCc2c(sc(NC(=O)c3ccccc3)c2C#N)C1` [Compound 98, 3-Cyano-2-[(1-phenyl-methanoyl)-amino]-4,7-dihydro-5H-thieno[2,3-c]pyridine-6-carboxylic acid ethylamide] were, in that order, ≤ 3 µM and > 100 µM.
Consider `N#Cc1c(NC(=O)c2ccccc2)sc2c1CCN(C(=O)NCCc1ccccn1)C2` [Compound 99, 3-Cyano-2-[(1-phenyl-methanoyl)-amino]-4,7-dihydro-5H-thieno[2,3-c]pyridine-6-carboxylic acid (2-pyridin-2-yl-ethyl)-amide], for which the IC50 in test [1] is ≤ 3 µM; in test [2], > 100 µM.
The like results for `CCOCCCNC(=O)N1CCc2c(sc(NC(=O)c3ccccc3)c2C#N)C1` [Compound 100, 3-Cyano-2-[(1-phenyl-methanoyl)-amino]-4,7-dihydro-5H-hieno[2,3-c]pyridine-6-carboxylic acid (3-ethoxy-propyl)-amide] were, in that order, ≤ 3 µM and > 100 µM.
For the compound `CCCCCSC(=O)N1CCc2c(sc(NC(=O)c3ccccc3)c2C#N)C1` [Compound 101, 3-Cyano-2-[(1-phenyl-methanoyl)-amino]-4,7-dihydro-5H-thieno[2,3-c]pyridine6-carbothioic acid S-pentyl ester], the figures for the IC50 in test [1] and in test [2] were ≤ 3 µM and > 100 µM, respectively.
Take `COC(=O)CCSC(=O)N1CCc2c(sc(NC(=O)c3ccccc3)c2C#N)C1` [Compound 102, 3-(1{3-Cyano-2-[(1-phenyl-methanoyl)-amino]-4,7-dihydro-5H-thieno[2,3-c]pyridin-6-yl}-methanoylsulfanyl)-propionic acid methyl ester]: the concentration for half-maximal inhibition (IC50) in test [1] was ≤ 3 µM; in test [2], > 100 µM.
The like results for `N#Cc1c(NC(=O)c2ccccc2)sc2c1CCN(C(=O)SCCC(=O)O)C2` [Compound 103, 3-(1-{3-Cyano-2-[(1-phenyl-methanoyl)-amino]-4,7-dihydro-5H-thieno[2,3-c]pyridin-6-yl}-methanoylsulfanyl)-propionic acid] were, in that order, ≤ 3 µM and > 100 µM.

A word on the IC50: it is the concentration that inhibits the measured activity by half. A higher IC50 goes with weaker potency in that assay.
